For 15 compounds, EC50, Emax and logD results are on record in ChEMBL document CHEMBL1833844, “Sulfonamides as selective oestrogen receptor β agonists” (Bioorg Med Chem Lett, 2011).

The target of series [1] is T1, Estrogen receptor beta (Homo sapiens, UniProt Q92731). Put plainly: Agonist activity at ERbeta expressed in […] cells co-expressing beta-lactamase after 18 hrs by beta-lactamase reporter gene assay. The series is classed as functional, cell-based. In general terms: Reporter assays use an easily measured gene product as a stand-in for the process of interest.
T1 sequence (Q92731 whole entry): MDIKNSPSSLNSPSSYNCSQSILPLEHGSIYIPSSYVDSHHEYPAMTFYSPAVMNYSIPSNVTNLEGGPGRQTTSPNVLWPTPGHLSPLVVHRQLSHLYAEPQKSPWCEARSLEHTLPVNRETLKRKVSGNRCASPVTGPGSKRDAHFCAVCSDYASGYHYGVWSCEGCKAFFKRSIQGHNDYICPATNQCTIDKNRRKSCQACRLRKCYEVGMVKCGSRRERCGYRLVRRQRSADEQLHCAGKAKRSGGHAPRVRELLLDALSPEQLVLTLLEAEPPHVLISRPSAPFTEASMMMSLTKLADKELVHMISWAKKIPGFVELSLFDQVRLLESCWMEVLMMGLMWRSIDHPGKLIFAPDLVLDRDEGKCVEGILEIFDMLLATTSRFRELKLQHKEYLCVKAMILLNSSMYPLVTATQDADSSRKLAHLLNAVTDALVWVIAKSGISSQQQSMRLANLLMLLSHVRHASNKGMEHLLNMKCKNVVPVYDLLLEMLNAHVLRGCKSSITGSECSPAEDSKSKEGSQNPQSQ
For series [2], the target named is T1, Estrogen receptor beta. Put plainly: Agonist activity at ERbeta expressed in […] cells co-expressing beta-lactamase at 10 uM after 18 hrs by beta-lactamase reporter gene assay relative to estradiol. The class given is functional, cell-based.
Series [3] deals with T2, Estrogen receptor (Homo sapiens) (UniProt P03372).
T2 sequence (whole entry): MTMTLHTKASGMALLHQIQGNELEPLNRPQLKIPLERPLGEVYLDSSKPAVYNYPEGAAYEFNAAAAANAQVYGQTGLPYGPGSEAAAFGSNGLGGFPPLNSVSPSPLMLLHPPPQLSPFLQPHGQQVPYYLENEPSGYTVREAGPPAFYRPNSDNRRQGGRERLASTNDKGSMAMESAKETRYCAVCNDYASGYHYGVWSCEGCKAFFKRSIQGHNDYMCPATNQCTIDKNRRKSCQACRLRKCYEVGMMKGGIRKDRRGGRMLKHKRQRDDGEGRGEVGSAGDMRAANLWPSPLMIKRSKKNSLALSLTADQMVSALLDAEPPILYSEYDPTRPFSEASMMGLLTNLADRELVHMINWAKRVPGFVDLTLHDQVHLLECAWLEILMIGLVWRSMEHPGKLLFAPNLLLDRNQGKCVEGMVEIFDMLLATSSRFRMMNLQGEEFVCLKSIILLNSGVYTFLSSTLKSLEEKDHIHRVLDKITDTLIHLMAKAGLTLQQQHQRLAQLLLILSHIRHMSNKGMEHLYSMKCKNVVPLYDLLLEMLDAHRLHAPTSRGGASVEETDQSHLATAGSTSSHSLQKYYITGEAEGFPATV
Put plainly: Agonist activity at ERalpha expressed in HEK cells co-expressing beta-lactamase at 10 uM after 18 hrs by beta-lactamase reporter gene assay relative to estradiol. The class given is functional, cell-based. Conditions: HEK293.

A further series addresses T3, Estrogen receptor (Homo sapiens, UniProt P03372).
T3 sequence (P03372 whole entry): T2 sequence (whole entry)
Put plainly: Agonist activity at ERalpha expressed in HEK cells co-expressing beta-lactamase after 18 hrs by beta-lactamase reporter gene assay. The series is classed as functional, cell-based, HEK293.

A short description of series [4]: Octanol-buffer partition coefficient, log D of the compound at pH 7.4. The class given is physicochemical.

On to `O=S(=O)(c1ccc(O)cc1)N(CCC(F)(F)F)c1ccc(O)cc1`, for which the EC50 (commonly the midpoint of the concentration-response curve) on Estrogen receptor beta [1] is 43 nM; at Estrogen receptor, 357 nM. Besides, the results for the Emax (on Estrogen receptor beta [2]; in series [3]) were 104% and 87%, respectively.

`O=S(=O)(c1ccc(O)cc1)N1[C@@H]2CC[C@H]1C[C@H](CO)C2`: the EC50 was greater than 3000 nM at Estrogen receptor beta [1] and 3500 nM at Estrogen receptor. For the same compound, the Emax (as a rule, the maximal effect, on the per cent scale that the assay sets) at Estrogen receptor beta [2] stood at 111%; in series [3], 94%.

Take `Cc1ccc(O)c(CCNS(=O)(=O)c2ccc(O)cc2)c1`: the EC50 on Estrogen receptor beta [1] was greater than 2400 nM. The same compound yielded an Emax at Estrogen receptor beta [2] of 73%.

Consider `C[C@](O)(CN(C1CC1)S(=O)(=O)c1ccc(O)cc1)c1ccccc1`, for which the EC50 at Estrogen receptor beta [1] is 79 nM; at Estrogen receptor, greater than 5400 nM. In addition, the Emax at Estrogen receptor beta [2] turned out to be 48%; in series [3] it was 107%. The logD (in general, lipophilicity at a set pH, counting ionised and neutral species) in series [4] is 2.7.

Consider `C[C@@](O)(CN(C1CC1)S(=O)(=O)c1ccc(O)cc1)c1ccccc1`, for which the EC50 at Estrogen receptor beta [1] was 110 nM; at Estrogen receptor, greater than 4560 nM. For the same compound, the results for the Emax (at Estrogen receptor beta [2]; in series [3]) were less than 20% and 85%, respectively.

With `CN(CC(C)(O)c1ccccc1)S(=O)(=O)c1ccc(O)cc1` (racemic), the EC50 was 1100 nM at Estrogen receptor beta [1] and greater than 3200 nM at Estrogen receptor. In addition, the Emax on Estrogen receptor beta [2] turned out to be 49%.

On to `CC(C)N(CC(C)(O)c1ccccc1)S(=O)(=O)c1ccc(O)cc1` (racemic), for which the values for the EC50 at Estrogen receptor beta [1] and on Estrogen receptor were 418 nM and greater than 2610 nM, respectively. Further, the Emax at Estrogen receptor beta [2] amounted to 44%; in series [3], 89%. Also, in series [4], the logD was 2.9.

Regarding `CCCCN(CC(C)(O)c1ccccc1)S(=O)(=O)c1ccc(O)cc1` (racemic), the results for the 50% effective concentration (EC50) at Estrogen receptor beta [1] and on Estrogen receptor were 84 nM and greater than 1100 nM, respectively. Besides, the Emax at Estrogen receptor beta [2] was less than 30%; in series [3], 82%. Further, in series [4], the logD stood at 3.4.

Turning to `CC(O)(CN(C1CC1)S(=O)(=O)c1ccc(O)cc1)c1ccccc1` (racemic), the EC50 at Estrogen receptor beta [1] is 101 nM; at Estrogen receptor, 2310 nM. The Emax was 47% at Estrogen receptor beta [2] and 79% in series [3]. The compound further gave a log distribution coefficient (logD) in series [4] of 2.5.

For the compound `O=S(=O)(c1ccc(O)cc1)N(CC(O)(c1ccccc1)C(F)(F)F)C1CC1` (racemic), the values for the EC50 at Estrogen receptor beta [1] and on Estrogen receptor were 14 nM and greater than 2680 nM, respectively. The results for the Emax (at Estrogen receptor beta [2]; in series [3]) were 43% and 66%, respectively. In addition, in series [4], the logD was 3.2.

For `CCCCC(O)(CN(C1CC1)S(=O)(=O)c1ccc(O)cc1)c1ccccc1` (racemic), the values for the concentration for a half-maximal effect (EC50) on Estrogen receptor beta [1] and on Estrogen receptor were 65 nM and greater than 6510 nM, respectively. Also, the Emax is 36% at Estrogen receptor beta [2] and 82% in series [3]. In series [4], this compound came in with a logD of 3.9.

For `CC(O)(CN(C1CC1)S(=O)(=O)c1ccc(O)cc1)c1ccccc1F` (racemic), the EC50 on Estrogen receptor beta [1] was 48 nM; on Estrogen receptor it was greater than 10000 nM. For the same compound, the Emax at Estrogen receptor beta [2] amounted to 49%. The compound also showed a logD in series [4] of 3.

On to `CC(O)(CN(C1CC1)S(=O)(=O)c1ccc(O)cc1)c1c(F)cccc1F` (racemic), for which the EC50 on Estrogen receptor beta [1] was 51 nM; at Estrogen receptor, 3800 nM. Moreover, the Emax at Estrogen receptor beta [2] worked out at 45%; in series [3], 75%. This compound yielded a logD in series [4] of 2.9.

For `CC(O)(CN(C1CC1)S(=O)(=O)c1ccc(O)cc1)c1cc[nH]n1` (racemic), the EC50 was 1480 nM on Estrogen receptor beta [1] and greater than 10000 nM at Estrogen receptor. This compound came in with an Emax at Estrogen receptor beta [2] of 86%. The logD in series [4] stood at 1.3.

Turning to `CC(O)(CN(C1CC1)S(=O)(=O)c1ccc(O)cc1)c1ccc(O)cc1` (racemic), the EC50 at Estrogen receptor beta [1] is 437 nM; on Estrogen receptor it was greater than 4800 nM. At Estrogen receptor beta [2], this compound had an Emax of 82%. For the same compound, in series [4], the logD turned out to be 2.
